Key:
[1] = target: T1, CAIX (Homo sapiens, UniProt Q16790); assay: Competitive fluorescence polarization assay with FITC-labeled 8; format: binding; details: 100 nM CAIX, 80 nM 8, 30 min room temperature, triplicate; read-out: IC50 (inhibition of fluorescence polarization of FITC labeled 8)
T1 construct: purchased R&D Systems
Text: We synthesized fluorescein isothiocyanate (FITC)-labeled 8 as a standard to measure CAIX binding affinities of the corresponding radiotracers. […] CAIX-selective binding was confirmed by fluorescence microscopic analyses of SK-RC-53 and BxPC3 cells labeled with 8 (Fig. 2). […] In order to test the relative binding of XYIMSR-01 and [^113/115In]XYIMSR-01 to CAIX we modified a competitive fluorescence polarization assay for use with 8. For the competitive binding assay, after optimization for background fluorescence, we chose concentrations of 80 nM and 100 nM for 8 and CAIX, respectively. […] Increasing concentrations of 1, XYIMSR-01 and [^113/115In]XYIMSR-01 were incubated with CAIX for 30 min at room temperature. After 8 was added, fluorescence polarization signal was recorded. […] We took advantage of fluorescence polarization using 8 to measure relative binding affinities for other isoforms of the carbonic anhydrases. We chose to test one cytosolic (CAII) and an additional membrane-localized isoform (CAXII).
Fluorescence polarization (FP) experiments were performed in 21 μL of the assay buffer (12.5 mM Tris-HCl, pH 7.5, 75 mM NaCl) in black flat bottom 384-well microplates (Corning, Inc., New York, NY). The FP reaction employed 100 nM of purified CAIX (R&D systems, Minneapolis, MN) and 80 nM FITC-labeled 8 [27] within the assay buffer. The FP values were measured as mP units using the Victor3 multi-label plate reader equipped with excitation (485 nm) and emission (535 nm) filters (Perkin Elmer, Waltham, MA). 100 nM CAIX was incubated with serially diluted (from 1 μM to 61 fM) concentrations of the three targeting molecules, 1, XYIMSR-01, and [^113/115In]XYIMSR-01 for 30 min at room temperature in 384-well plates. 80 nM 8 was added to each well and the reaction was incubated for 30 min at room temperature followed by FP measurement. Experiments were carried out in triplicate and the concentration resulting in 50% response (IC50) was calculated in GraphPad Prism 5 (GraphPad Software, La Jolla, CA) using the sigmoidal dose-response regression function.

[2] = target: CAIX; design: method as in PMID 25698334; details: reported value; cited from earlier work

SMILES | IC50 [1] | Kd [2]
CC(CCC(=O)N[C@@H](CC(=O)N[C@@H](CC(=O)N[C@@H](CCCCn1cc(CCCC(=O)Nc2nnc(S(N)(=O)=O)s2)nn1)C(=O)NCCOCCOCCNC(=O)CN1CCN(CC(=O)[O-])CCN(CC(=O)[O-])CCN(CC(=O)[O-])CC1)C(=O)O)C(=O)O)(c1ccc(O)cc1)c1ccc(O)cc1.[In+3] [[^113/115In]XYIMSR-01, ^113/115Indium(III) 2,2′,2′'-(10-((14S,18S,22S)-18,22-dicarboxy-27,27-bis(4-hydroxyphenyl)-2,13,16,20,24-pentaoxo-14-(4-(4-(4-oxo-4-((5-sulfamoyl-1,3,4-thiadiazol-2-yl)amino)butyl)-1H-1,2,3-triazol-1-yl)butyl)-6,9-dioxa-3,12,15,19,23-pentaazaoctacosyl)-1,4,7,10-tetraazacyclododecane-1,4,7-triyl)triacetate] | 0.108 µM | –
CC(CCC(=O)N[C@@H](CC(=O)N[C@@H](CC(=O)N[C@@H](CCCCn1cc(CCCC(=O)Nc2nnc(S(N)(=O)=O)s2)nn1)C(=O)NCCOCCOCCNC(=O)CN1CCN(CC(=O)O)CCN(CC(=O)O)CCN(CC(=O)O)CC1)C(=O)O)C(=O)O)(c1ccc(O)cc1)c1ccc(O)cc1 [XYIMSR-01, 2,2′,2′'-(10-((14S,18S,22S)-18,22-dicarboxy-27,27-bis(4-hydroxyphenyl)-2,13,16,20,24-pentaoxo-14-(4-(4-(4-oxo-4-((5-sulfamoyl-1,3,4-thiadiazol-2-yl)amino)butyl)-1H-1,2,3-triazol-1-yl)butyl)-6,9-dioxa-3,12,15,19,23-pentaazaoctacosyl)-1,4,7,10-tetraazacyclododecane-1,4,7-triyl)triacetic acid] | 0.067 µM | –
CC(CCC(=O)N[C@@H](CC(=O)N[C@@H](CC(=O)N[C@@H](CCCCn1cc(CCCC(=O)Nc2nnc(S(N)(=O)=O)s2)nn1)C(=O)NCCOCCOCCN)C(=O)O)C(=O)O)(c1ccc(O)cc1)c1ccc(O)cc1 [Compound 1, N^4-((S)-1-((2-(2-(2-aminoethoxy)ethoxy)ethyl)amino)-1-oxo-6-(4-(4-oxo-4-((5-sulfamoyl-1,3,4-thiadiazol-2-yl)amino)butyl)-1H-1,2,3-triazol-1-yl)hexan-2-yl)-N^2-((S)-3-(4,4-bis(4-hydroxyphenyl)pentanamido)-3-carboxypropanoyl)-L-asparagine, reference compound] | 0.0759 µM | 0.0026 µM
